Laboratory results: PubChem BioAssay (NCI)
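Test compounds were applied to cells in 96-well plates for 48 hours at 5 doses. The concentration for 50% growth inhibition is given as GI50. TGI: total growth inhibition.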

Legend:
Test in all cases: NCI-60 cell line screen, 48 h
[1] = tested on: SNB-19 CNS
[2] = tested on: HCT-116 colon
[3] = tested on: PC-3 prostate
[4] = tested on: IGROV1 ovarian
[5] = tested on: NCI/ADR-RES ovarian
[6] = tested on: HCT-15 colon
[7] = tested on: MCF7 breast
[8] = tested on: HL-60(TB) leukemia
[9] = tested on: 786-0 renal
[10] = tested on: U251 CNS
[11] = tested on: SF-539 CNS
[12] = tested on: HOP-92 NSCLC
[13] = tested on: MDA-MB-435
[14] = tested on: MALME-3M melanoma
[15] = tested on: SF-268 CNS
[16] = tested on: HCC-2998 colon
[17] = tested on: K-562 leukemia
[18] = tested on: MDA-MB-231 breast
[19] = tested on: UACC-257 melanoma
[20] = tested on: OVCAR-3 ovarian
[21] = tested on: CAKI-1 renal
[22] = tested on: SR leukemia
[23] = tested on: RXF 393 renal
[24] = tested on: SN12C renal
[25] = tested on: CCRF-CEM leukemia
[26] = tested on: NCI-H23 lung
[27] = tested on: T-47D breast
[28] = tested on: EKVX NSCLC
[29] = tested on: LOX IMVI melanoma
[30] = tested on: BT-549 breast
[31] = tested on: A549 NSCLC
[32] = tested on: TK-10 renal
[33] = tested on: SNB-75 CNS
[34] = tested on: DU-145 prostate
[35] = tested on: OVCAR-5 ovarian
[36] = tested on: HOP-62 NSCLC
[37] = tested on: HS 578T breast
[38] = tested on: SF-295 CNS
[39] = tested on: OVCAR-4 ovarian
[40] = tested on: SK-MEL-2 melanoma
[41] = tested on: MOLT-4 leukemia
[42] = tested on: RPMI-8226 leukemia
[43] = tested on: NCI-H522 lung
[44] = tested on: SK-MEL-28 melanoma
[45] = tested on: HT29 colon
[46] = tested on: UACC-62 melanoma
[47] = tested on: SW-620 colon
[48] = tested on: UO-31 renal
[49] = tested on: OVCAR-8 ovarian
[50] = tested on: KM12 colon
[51] = tested on: NCI-H460 lung
[52] = tested on: ACHN renal
[53] = tested on: A498 renal
[54] = tested on: M14 melanoma

Compound `c1ccc([P+](c2ccccc2)(c2ccccc2)c2ccc3c4ccc([P+](c5ccccc5)(c5ccccc5)c5ccccc5)c5cccc(c6cccc2c63)c54)cc1` has a GI50 [1] of 0.714 µM, a TGI [1] of 13.1 µM and a GI50 [2] of 1.54 µM. For the same compound, the TGI [2] was 10.4 µM, the GI50 [3] was 1.65 µM and the TGI [3] was 14.3 µM. It also gave a GI50 [4] of 1.41 µM, a TGI [4] of 7.47 µM and a GI50 [5] of 9.41 µM. The TGI [5] was over 100 µM, the GI50 [6] was 5.89 µM and the TGI [6] was over 100 µM. For the same compound, the GI50 [7] was 1.25 µM, the TGI [7] was 14.2 µM and the GI50 [8] was 2.38 µM. For the same compound, the TGI [8] was 6.25 µM, the GI50 [9] was 3.04 µM and the TGI [9] was 28.8 µM. It also gave a GI50 [10] of 0.445 µM, a TGI [10] of 17.9 µM and a GI50 [11] of 0.477 µM. The TGI [11] was 2.32 µM, the GI50 [12] was 1.18 µM and the TGI [12] was 5.44 µM. For the same compound, the GI50 [13] was 0.799 µM, the TGI [13] was 4.21 µM and the GI50 [14] was 0.412 µM. The TGI [14] was 2.56 µM, the GI50 [15] was 0.995 µM and the TGI [15] was 20 µM. The GI50 [16] was 2.28 µM, the TGI [16] was 8.51 µM and the GI50 [17] was 0.506 µM. The TGI [17] was over 100 µM, the GI50 [18] was 2.22 µM and the TGI [18] was 9.98 µM. It also gave a GI50 [19] of 2.12 µM, a TGI [19] of 8.47 µM and a GI50 [20] of 1.91 µM. It also gave a TGI [20] of 11.9 µM, a GI50 [21] of 6.15 µM and a TGI [21] of over 100 µM. The GI50 [22] was 1.1 µM, the TGI [22] was over 100 µM and the GI50 [23] was 2.79 µM. It also gave a TGI [23] of 25.3 µM, a GI50 [24] of 1.09 µM and a TGI [24] of 13.7 µM. The GI50 [25] was 2.13 µM, the TGI [25] was 33.3 µM and the GI50 [26] was 2.1 µM. It also gave a TGI [26] of 13.5 µM, a GI50 [27] of 0.621 µM and a TGI [27] of 24.6 µM. For the same compound, the GI50 [28] was 1.69 µM, the TGI [28] was 35.2 µM and the GI50 [29] was 2.67 µM. The TGI [29] was 20.7 µM, the GI50 [30] was 0.455 µM and the TGI [30] was 2.69 µM. It also gave a GI50 [31] of 0.986 µM, a TGI [31] of over 100 µM and a GI50 [32] of 4.18 µM. For the same compound, the TGI [32] was over 100 µM, the GI50 [33] was 0.435 µM and the TGI [33] was 4.17 µM. For the same compound, the GI50 [34] was 0.811 µM, the TGI [34] was 13.4 µM and the GI50 [35] was 2.82 µM. The TGI [35] was over 100 µM, the GI50 [36] was 0.931 µM and the TGI [36] was 25.8 µM. For the same compound, the GI50 [37] was 0.574 µM, the TGI [37] was 5.49 µM and the GI50 [38] was 1.24 µM. It also gave a TGI [38] of 5.36 µM, a GI50 [39] of 1.89 µM and a TGI [39] of 30.8 µM. For the same compound, the GI50 [40] was 2.57 µM, the TGI [40] was 7.58 µM and the GI50 [41] was 2.37 µM. For the same compound, the TGI [41] was 19.3 µM, the GI50 [42] was 0.647 µM and the TGI [42] was 4.16 µM. For the same compound, the GI50 [43] was 1.24 µM, the TGI [43] was 13.7 µM and the GI50 [44] was 1.67 µM. The TGI [44] was 6.15 µM, the GI50 [45] was 1.64 µM and the TGI [45] was 13.3 µM. It also gave a GI50 [46] of 1.47 µM, a TGI [46] of 4.64 µM and a GI50 [47] of 1.98 µM. The TGI [47] was 10.8 µM, the GI50 [48] was 2.73 µM and the TGI [48] was 78.3 µM. The GI50 [49] was 1.32 µM, the TGI [49] was over 100 µM and the GI50 [50] was 0.743 µM. The TGI [50] was 3.1 µM, the GI50 [51] was 0.692 µM and the TGI [51] was 3.94 µM. It also gave a GI50 [52] of 3.79 µM, a TGI [52] of over 100 µM and a GI50 [53] of 0.889 µM. For the same compound, the TGI [53] was 6.79 µM, the GI50 [54] was 1.39 µM and the TGI [54] was 7.48 µM.
